From ChEMBL document CHEMBL4371090, “Chemical Synthesis Study Establishes the Correct Structure of the Potent Anti-Inflammatory Agent Myrsinoic Acid F” (J Nat Prod, 2019)
Calls of active or inactive are those of the source. No cut-off for these calls is given here.

System: Mus musculus
Assay: Anti-inflammatory activity in TPA-induced mouse ear edema model assessed as inhibition of ear swelling at 0.6 to 1.4 umol applied topically on ear pretreated for 0.5 hrs followed by TPA application and measured after 7 hrs
Assay type: functional, organism-based

Question: For `CC(C)=CC/C=C(\C)C(O)Cc1cc(C(=O)O)cc(CC=C(C)C)c1O` (stereo not drawn), which inhibition is on record?
Answer: Active

Question: `CC(C)=CC/C=C(\C)C(O)Cc1cc(Br)cc(CC=C(C)C)c1O` (stereo not drawn) was tested. Which inhibition did it give?
Answer: Active

Question: Which inhibition does the source give for `COc1ccc2c(c1)c(CC(=O)O)c(C)n2C(=O)c1ccc(Cl)cc1` here?
Answer: Active
